Measurements published in US9562046B2, “Means and method for treating solid tumors” (Vivolux AB, priority 2012, dated 2017).

Assays:
[1] = Intravenous tolerability / systemic toxicity in NMRI mice; assay type: in vivo; conditions: mouse, in vivo, iv, injected intravenously, read-out: maximally tolerated dose (MTD)
Protocol: (§1) The compound of the invention (compound 11) was injected intravenously in NMRI mice. […] The compound was rapidly distributed and finally eliminated with a half-life of 4˜5 h. The systemic toxicity of the compound of the invention is low.

NMRI mice = experiment: as above; assay type: in vivo
Protocol: as §1

[2] = Plasma pharmacokinetics after intravenous injection in NMRI mice; assay type: in vivo
Protocol: as §1

[3] = Stability studies at room temperature in 5% aqueous mannitol; assay type: physicochemical; conditions: dihydrochloride/ethanol complex, storage for 100 h
Protocol: Stability studies at room temperature were conducted with from 0.1 mg/L to 15 mg/L of the dihydrochloride/ethanol complex in 5% aqueous mannitol (to provide for isotonicity). […] For instance, about 2.5% compound 11 is degraded after storage for 100 h of a solution comprising 15 mg compound per liter, while about 5% of the compound is degraded in a solution comprising 2 mg compound per liter, and about 13 of the compound in a solution comprising 0.1 mg compound per liter.

C/C(=N/Nc1ccc2c(n1)[nH]c1c(C)cccc12)c1ccccn1 [compound 11, 2-[(1Z)-1-(2-{8-Methyl-8H, 8aH, 9H-pyrido[2,3-b]indol-2-yl}hydrazin-1-ylidene)ethyl]-pyridine]
MTD [1]: 16 mg/kg | changes in plasma parameters (liver ALT, blood glucose, total protein) (NMRI mice; doses up to 4.5 mg/kg): did not produce noteworthy changes | effect on the animals' weight gain (NMRI mice; doses up to 4.5 mg/kg): nor did they prevent the animals from gaining weight | systemic toxicity (NMRI mice; intravenous): low | initial plasma concentration relative to the IC50 of tumor cell lines and primary patient colorectal cancer cells in vitro ([2]; at MTD of 16 mg/kg): > 10 fold | half-life ([2]; mouse, plasma, 16 mg/kg, NMRI mice, read-out: elimination half-life): 4 to 5 h | C0 ([2]; mouse, plasma, at MTD of 16 mg/kg, NMRI mice, read-out: initial plasma concentration): ~100 µM | compound degraded ([3]; 0.1 mg compound per liter): about 13 | compound degraded ([3]; 2 mg compound per liter): about 5% | compound degraded ([3]; 15 mg compound per liter): about 2.5%
